Source: ChEMBL document CHEMBL4811256, “Synthesis and evaluation of multi-target-directed ligands with BACE-1 inhibitory and Nrf2 agonist activities as potential agents against Alzheimer's disease” (Eur J Med Chem, 2021)
Active and inactive are the calls of the source. The calls are words filed in the database; no cut-off is given here.

Legend:
[1] = system: HEK293; test: Inhibition of amyloid beta(1 to 40) secretion in human HEK293T cells transfected with human APP harboring Swedish double mutant K595N/M596L measured after 24 hrs by ELISA; type: functional, cell-based; conditions: dose 2.5-10 µM
[2] = system: PC-12; test: Protection against 6-OHDA-induced mitochondrial dysfunction in rat PC-12 cells assessed as change in mitochondrial membrane potential at 10 uM pretreated with compound for 12 hrs followed by 6-OHDA challenge by JC-1 staining based flow cytometry (reference value: 56 %); type: functional
[3] = system: PC-12; test: Protection against H2O2-induced apoptosis in rat PC-12 cells assessed as necrotic cells at 2.5 uM pretreated for 12 hrs followed by H2O2 challenge by annexin V FITC/propidium iodide staining based flow cytometry (reference value: 3.7 %); type: functional
[4] = system: PC-12; test: Prevention of H2O2-induced calcium overload in rat PC-12 cells assessed as reduction in intracellular free calcium pretreated with compound for 12 hrs followed by H2O2 challenge by Fluo-3AM based fluorescence assay; type: functional, cell-based; conditions: dose 2.5-10 µM
[5] = system: PC-12; test: Protection against 6-OHDA-induced apoptosis in rat PC-12 cells assessed as late apoptotic cells at 2.5 uM pretreated for 12 hrs followed by 6-OHDA challenge by annexin V FITC/propidium iodide staining based flow cytometry (reference value: 17.3 %); type: functional
[6] = system: BV-2; test: Antiinflammatory activity in mouse BV-2 cells transfected with Nrf2 siRNA assessed as inhibition of LPS-induced NO production at 10 uM pretreated with compound for 2 hrs followed by LPS stimulation and further incubated for 18 hrs; type: functional, cell-based; conditions: time 20.0 hrs
[7] = system: PC-12; test: Protection against H2O2-induced apoptosis in rat PC-12 cells assessed as early apoptic cells at 5 uM pretreated for 12 hrs followed by H2O2 challenge by annexin V FITC/propidium iodide staining based flow cytometry (reference value: 2.2 %); type: functional
[8] = system: PC-12; test: Activation of Keap1-Nrf2-ARE pathway in rat PC-12 assessed as induction of accumulation of Nrf2 in nucleus at 10 uM measured after 3 hrs by Western blot analysis; conditions: filed as activator
[9] = system: BV-2; test: Antiinflammatory activity in mouse BV-2 cells transfected with Nrf2 siRNA assessed as inhibition of LPS-induced IL-6 production at 10 uM pretreated with compound for 2 hrs followed by LPS stimulation and further incubated for 18 hrs; type: functional, cell-based; conditions: time 20.0 hrs
[10] = system: PC-12; test: Activation of Keap1-Nrf2-ARE pathway in rat PC-12 assessed as accumulation of Nrf2 in cytosol at 10 uM measured up to 24 hrs by Western blot analysis; type: subcellular; conditions: filed as activator, time hrs <=24
[11] = system: PC-12; test: Protection against H2O2-induced mitochondrial dysfunction in rat PC-12 cells assessed as change in mitochondrial membrane potential at 5 uM pretreated with compound for 12 hrs followed by H2O2 challenge by JC-1 staining based flow cytometry (reference value: 73 %); type: functional
[12] = Binding affinity to N-Acetyl-L-cysteine assessed ascompound-NAC covalent adduct formation measured after 3 hrs by Q-TOF mass spectroscopy
[13] = system: PC-12; test: Protection against H2O2-induced mitochondrial dysfunction in rat PC-12 cells assessed as change in mitochondrial membrane potential at 10 uM pretreated with compound for 12 hrs followed by H2O2 challenge by JC-1 staining based flow cytometry (reference value: 73 %); type: functional
[14] = system: PC-12; test: Cytoprotective activity against 6-OHDA induced cell death in rat PC-12 cells assessed as increase in viable cells at 10 uM pretreated for 12 hrs followed by 6-OHDA challenge by MTT assay relative to control; type: functional
[15] = molecular target: T1, Nuclear factor erythroid 2-related factor 2 (Mus musculus) (UniProt Q60795); test: Activation of Nrf2 in mouse BV-2 cells assessed as upregulation of GCLC protein expression after 24 hrs by Western blot analysis; type: cell-based; conditions: filed as activator, dose 2.5-10 µM
T1 sequence (whole entry): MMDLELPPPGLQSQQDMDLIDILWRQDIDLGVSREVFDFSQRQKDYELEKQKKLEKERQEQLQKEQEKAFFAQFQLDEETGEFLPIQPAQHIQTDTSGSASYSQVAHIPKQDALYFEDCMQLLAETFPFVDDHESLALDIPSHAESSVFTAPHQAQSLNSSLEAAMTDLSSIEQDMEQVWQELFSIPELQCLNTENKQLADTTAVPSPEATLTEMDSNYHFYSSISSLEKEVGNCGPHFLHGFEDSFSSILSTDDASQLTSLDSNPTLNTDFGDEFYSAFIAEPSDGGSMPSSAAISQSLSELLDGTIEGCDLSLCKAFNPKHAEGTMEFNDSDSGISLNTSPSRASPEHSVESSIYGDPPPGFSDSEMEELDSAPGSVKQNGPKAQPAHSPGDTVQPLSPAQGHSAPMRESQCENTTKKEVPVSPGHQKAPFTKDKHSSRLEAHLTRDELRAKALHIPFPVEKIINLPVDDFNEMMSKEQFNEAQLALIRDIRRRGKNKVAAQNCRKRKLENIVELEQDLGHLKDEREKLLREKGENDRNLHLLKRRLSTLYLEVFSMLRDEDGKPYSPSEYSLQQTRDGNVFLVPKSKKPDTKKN

[16] = molecular target: Beta-secretase 1 (Homo sapiens, UniProt P56817); test: Inhibition of BACE-1 (unknown origin) using Mca-Ser-Glu-Val-Asn-Leu-Asp-Ala-Glu-Phe-Lys-Dnp-OH as substrate preincubated for 30 mins followed by substrate addition and measured after 1 hr by FRET assay
Chain of Beta-secretase 1 (P56817 whole entry): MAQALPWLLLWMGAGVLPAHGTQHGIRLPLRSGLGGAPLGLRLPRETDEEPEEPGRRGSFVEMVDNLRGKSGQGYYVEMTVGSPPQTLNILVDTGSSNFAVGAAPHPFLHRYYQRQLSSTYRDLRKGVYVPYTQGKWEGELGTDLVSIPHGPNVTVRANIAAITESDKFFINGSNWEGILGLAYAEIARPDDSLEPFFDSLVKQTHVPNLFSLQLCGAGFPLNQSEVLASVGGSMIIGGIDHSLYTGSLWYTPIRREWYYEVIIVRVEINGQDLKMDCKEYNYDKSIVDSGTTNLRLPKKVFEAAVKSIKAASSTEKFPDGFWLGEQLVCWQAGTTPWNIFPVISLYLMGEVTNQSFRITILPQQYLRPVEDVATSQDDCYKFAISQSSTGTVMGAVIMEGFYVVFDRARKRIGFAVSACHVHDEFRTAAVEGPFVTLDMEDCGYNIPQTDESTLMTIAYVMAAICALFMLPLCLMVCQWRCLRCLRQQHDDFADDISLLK

[17] = system: PC-12; test: Protection against H2O2-induced apoptosis in rat PC-12 cells assessed as late apoptic cells at 10 uM pretreated for 12 hrs followed by H2O2 challenge by annexin V FITC/propidium iodide staining based flow cytometry (reference value: 20.8 %); type: functional
[18] = system: PC-12; test: Protection against 6-OHDA-induced apoptosis in rat PC-12 cells assessed as late apoptotic cells at 5 uM pretreated for 12 hrs followed by 6-OHDA challenge by annexin V FITC/propidium iodide staining based flow cytometry (reference value: 17.3 %); type: functional
[19] = system: PC-12; test: Cytoprotective activity against H2O2-induced cell damage in rat PC-12 cells transfected with Nrf2 siRNA at 10 uM; type: functional, cell-based
[20] = system: PC-12; test: Protection against 6-OHDA-induced apoptosis in rat PC-12 cells assessed as viable cells at 10 uM pretreated for 12 hrs followed by 6-OHDA challenge by annexin V FITC/propidium iodide staining based flow cytometry (reference value: 76.7 %); type: functional; conditions: read-out: Activity
[21] = system: PC-12; test: Cytoprotective activity against 6-OHDA-induced oxidative stress in rat PC-12 cells assessed as decrease in cell death at 10 uM pretreated for 12 hrs followed by 6-OHDA challenge by MTT assay; type: functional, cell-based
[22] = system: PC-12; test: Protection against H2O2-induced apoptosis in rat PC-12 cells assessed as viable cells at 2.5 uM pretreated for 12 hrs followed by H2O2 challenge by annexin V FITC/propidium iodide staining based flow cytometry (reference value: 73.3 %); type: functional; conditions: read-out: Activity
[23] = system: PC-12; test: Protection against 6-OHDA-induced apoptosis in rat PC-12 cells assessed as necrotic cells at 10 uM pretreated for 12 hrs followed by 6-OHDA challenge by annexin V FITC/propidium iodide staining based flow cytometry (reference value: 3.7 %); type: functional

Question: What does the source list for `CN1C(N)=N[C@](C)(c2cc(-n3[se]c4cc(F)ccc4c3=O)ccc2F)CS1(=O)=O`?
Answer: inhibition [1]: Active; Activity [2]: 78.6%; Activity [3]: 2.1%; Activity [4]: Dose-Dependent Effect; Activity [5]: 14.9%; Activity [6]: inactive; Activity [7]: 1.6%; Activity [8]: Active; Activity [9]: inactive; Activity [10]: Active; Activity [11]: 85.9%; Activity [12]: Active; Activity [13]: 89.1%; Activity [14]: 77%; Activity [15]: Dose-Dependent Effect; IC50 [16]: 1060 nM; Activity [17]: 4.7%; Activity [18]: 11.8%; Activity [19]: inactive; viability at 10 µM [20]: 90.5%; Activity [21]: Active; viability at 2.5 µM [22]: 83.6%; Activity [23]: 1.4%
